# In US10118911B2, “P-toluenesulfonate for MEK kinase inhibitor, and crystal form thereof and preparation method therefor” (Jiangsu Hengrui Medicine Co., Ltd., priority 2015, dated 2018):
# Experiments:
# [1] = Special stability study of crystal form I (grinding, heating, pressing); format: physicochemical
# From the text: Crystal form I of the compound of formula (I) prepared according to the method of Example 2 was ground, heated and pressed.
# [2] = Stability of crystal form I spread flat in the air under lighting, heating and high humidity, purity detected by HPLC; format: physicochemical; conditions: for stability (in words): lighting, high temperature, high humidity, p-toluenesulfonate
# Experimental: The product sample of crystal form I prepared in Example 2 was spread flat in the air, to test its stability under conditions of lighting, heating (40° C., 60° C.), and high humidity (RH 75%, RH 90%). Samplings were carried out on Day 5 and Day 10.
# [3] = Solubility compared to the free base; format: physicochemical
# [4] = Bioavailability compared to the free base; format: in vivo
# MEK kinase = conditions: from PCT/CN2014/085976 of the applicant; cited from earlier work
# [5] = after grinding treatment for 10 min in a mortar under nitrogen atmosphere
# [6] = after heating treatment for 3 h at 80° C.
# [7] = after pressing treatment (pressed to a slice)
smiles,measurement,setting,value
"Cc1ccc(Oc2cc(=O)n(C)c(Nc3ccc(I)cc3F)c2C(N)=O)cn1.Cc1ccc(S(=O)(=O)O)cc1 [2-((2-fluoro-4-iodophenyl)amino)-1-methyl-4-((6-methylpyridin-3-yl)oxy)-6-oxo-1,6-di hydropyridine-3-carboxamide p-toluenesulfonate]",Crystal form,[1]; [5],form I
same,DSC peak,[1]; [5],237.66 °C
same,Crystal form,[1]; [6],form I
same,DSC peak,[1]; [6],237.45 °C
same,Crystal form,[1]; [7],form I
same,DSC peak,[1]; [7],237.75 °C
same,stability of the crystal form (in words),"[1]; grinding, pressure and heating",stable
same,purity detected by HPLC,"[2]; 40° C., day 0",98.86%
same,purity detected by HPLC,"[2]; 40° C., day 5",98.85%
same,purity detected by HPLC,"[2]; 40° C., day 10",98.88%
same,purity detected by HPLC,"[2]; 60° C., day 0",98.86%
same,purity detected by HPLC,"[2]; 60° C., day 5",98.89%
same,purity detected by HPLC,"[2]; 60° C., day 10",98.88%
same,purity detected by HPLC,"[2]; 4500 Lux, day 0",98.86%
same,purity detected by HPLC,"[2]; 4500 Lux, day 5",99.08%
same,purity detected by HPLC,"[2]; 4500 Lux, day 10",99.17%
same,purity detected by HPLC,"[2]; RH75%, day 0",98.86%
same,purity detected by HPLC,"[2]; RH75%, day 5",98.88%
same,purity detected by HPLC,"[2]; RH75%, day 10",98.88%
same,purity detected by HPLC,"[2]; RH90%, day 0",98.86%
same,purity detected by HPLC,"[2]; RH90%, day 5",98.86%
same,purity detected by HPLC,"[2]; RH90%, day 10",98.88%
same,stability (in words),[2]; listed as crystal form I,good stability
same,stability (in words),[2],stable
"Cc1ccc(Oc2cc(=O)n(C)c(Nc3ccc(I)cc3F)c2C(N)=O)cn1.Cc1ccc(S(=O)(=O)O)cc1 [compound of formula (I), 2-((2-fluoro-4-iodophenyl)amino)-1-methyl-4-((6-methylpyridin-3-yl)oxy)-6-oxo-1,6-di hydropyridine-3-carboxamide p-toluenesulfonate]",solubility,[3],greatly improved
same,bioavailability,[4],greatly improved
"Cc1ccc(Oc2cc(=O)n(C)c(Nc3ccc(I)cc3F)c2C(N)=O)cn1 [Example 1, 2-((2-fluoro-4-iodophenyl)amino)-1-methyl-4-((6-methylpyridin-3-yl)oxy)-6-oxo-1,6-dihydropyridine-3-carboxamide]",inhibitory activity against MEK kinase,MEK kinase,strong inhibitory activity
